Results taken from patent US5466671A, “Apidaecin-type peptide antibiotics with improved activities and/or different antibacterial spectrum” (priority 1994, dated 1995).
Residues, ends and D or L forms follow the SMILES beside them. No end group written: not given here.

Assays:
[1] = tested on: Enterobacter cloacae; assay: Inhibition zone assay (agar plate); assay type: cell-based; settings: agar plate, 50 nanomoles/well, 3 mm wells
[2] = tested on: Klebsiella pneumoniae; assay: Inhibition zone assay (agar plate); assay type: cell-based; settings: agar plate, 50 nanomoles/well, 3 mm wells
[3] = tested on: E. coli 23802; assay: Minimal inhibitory concentration (liquid culture); settings: inoculum 5000 CFU/ml; a-b = highest concentration with growth - lowest without growth
[4] = tested on: A. calcoaceticus; assay: Minimal inhibitory concentration (liquid culture); settings: inoculum 16 × 10^6 CFU/ml; a-b = highest concentration with growth - lowest without growth
[5] = tested on: Salmonella typhimurium; assay: Inhibition zone assay (agar plate); assay type: cell-based; settings: agar plate, 50 nanomoles/well, 3 mm wells
[6] = tested on: Rhizobium meliloti; assay: Inhibition zone assay (agar plate); assay type: cell-based; settings: 50 nanomoles/well, 3 mm wells
[7] = tested on: Y. enterocolitica; assay: Minimal inhibitory concentration (liquid culture); settings: inoculum 5000 CFU/ml; a-b = highest concentration with growth - lowest without growth
[8] = tested on: Acinetobacter calcoaceticus; assay: Inhibition zone assay (agar plate); assay type: cell-based; settings: agar plate, 50 nanomoles/well, 3 mm wells
[9] = tested on: S. typhimurium; assay: Minimal inhibitory concentration (liquid culture); settings: inoculum 8 × 10^6 CFU/ml; a-b = highest concentration with growth - lowest without growth
[10] = tested on: Pseudomonas syringae; assay: Inhibition zone assay (agar plate); assay type: cell-based; settings: agar plate, 50 nanomoles/well, 3 mm wells
[11] = tested on: E. coli Apid^R; assay: Minimal inhibitory concentration (liquid culture); assay type: cell-based; settings: a-b = highest concentration with growth - lowest without growth
Text: For details see `Experimental Procedures`.

[12] = tested on: Erwinia amylovora; assay: Inhibition zone assay (agar plate); assay type: cell-based; settings: agar plate, 50 nanomoles/well, 3 mm wells
[13] = tested on: Haemophilus influenzae; assay: Inhibition zone assay (agar plate); assay type: cell-based; settings: 50 nanomoles/well, 3 mm wells
[14] = tested on: Francisella tularensis; assay type: cell-based; settings: agar plate, 50 nanomoles/well, 3 mm wells
[15] = tested on: E. coli 11775; assay: Minimal inhibitory concentration (liquid culture); settings: a-b = highest concentration with growth - lowest without growth
[16] = tested on: M. morganii; assay: Minimal inhibitory concentration (liquid culture); settings: inoculum 400 CFU/ml; a-b = highest concentration with growth - lowest without growth
[17] = tested on: E. coli 25922; assay: Minimal inhibitory concentration (liquid culture); settings: inoculum 1100 CFU/ml; a-b = highest concentration with growth - lowest without growth
[18] = tested on: Agrobacterium tumefaciens; assay: Inhibition zone assay (agar plate); assay type: cell-based; settings: agar plate, 50 nanomoles/well, 3 mm wells
[19] = tested on: Yersinia enterocolitica; assay: Inhibition zone assay (agar plate); assay type: cell-based; settings: 50 nanomoles/well, 3 mm wells
[20] = tested on: Escherichia coli (ATCC11775); assay: Inhibition zone assay (agar plate); assay type: cell-based; settings: agar plate, 50 nanomoles/well, 3 mm wells
[21] = tested on: Escherichia coli (K514); assay type: cell-based; settings: agar plate, 50 nanomoles/well, 3 mm wells

CC(C)C[C@H](NC(=O)[C@H](CCCNC(=N)N)NC(=O)[C@@H]1CCCN1C(=O)[C@H](Cc1c[nH]cn1)NC(=O)[C@@H]1CCCN1C(=O)[C@@H]1CCCN1C(=O)[C@H](CCCNC(=N)N)NC(=O)[C@@H]1CCCN1C(=O)[C@@H]1CCCN1C(=O)[C@@H](NC(=O)[C@H](CCC(N)=O)NC(=O)[C@H](CCC(N)=O)NC(=O)[C@@H]1CCCN1C(=O)[C@H](CCCNC(=N)N)NC(=O)[C@@H]1CCCN1C(=O)[C@H](CCCCN)NC(=O)[C@@H](N)CC(N)=O)C(C)C)C(=O)O [Yj -S, Asn--Lys--Pro--Arg--Pro--Gln--Gln--Val--Pro--Pro--Arg--Pro--Pro--His--Pro--Arg--Leu] (H-NKPRPQQVPPRPPHPRL-OH)
inhibition zone diameter (number of plus signs) [1]: ++ ((++) 7-9 mm)
inhibition zone diameter (number of plus signs) [2]: ++ ((++) 7-9 mm)
minimal inhibitory concentration (MIC) [3]: 1 to 5 µg/mL
minimal inhibitory concentration (MIC) [4]: 2 to 10 µg/mL
inhibition zone diameter (number of plus signs) [5]: +++ ((+++) 10-14 mm)
inhibition zone diameter (number of plus signs) [6]: ++++ ((++++) 15-19 mm)
minimal inhibitory concentration (MIC) [7]: 1 to 5 µg/mL
inhibition zone diameter (number of plus signs) [8]: ++ ((++) 7-9 mm)
minimal inhibitory concentration (MIC) [9]: 0.1 to 0.5 µg/mL
inhibition zone diameter (number of plus signs) [10]: ++++ ((++++) 15-19 mm)
minimal inhibitory concentration (MIC) ([11]; inoculum 12 × 10^6 CFU/ml): 5 to 10 µg/mL
minimal inhibitory concentration (MIC) ([11]; inoculum 1000 CFU/ml): 5 to 10 µg/mL
inhibition zone diameter (number of plus signs) [12]: ++++ ((++++) 15-19 mm)
inhibition zone diameter (number of plus signs) [13]: ++ ((++) 7-9 mm)
inhibition zone diameter (number of plus signs) [14]: + ((+) 5-6 mm)
minimal inhibitory concentration (MIC) ([15]; inoculum 16 × 10^6 CFU/ml): 0.1 to 0.5 µg/mL
minimal inhibitory concentration (MIC) ([15]; inoculum 1200 CFU/ml): 0.1 to 0.5 µg/mL
minimal inhibitory concentration (MIC) [16]: 1 to 5 µg/mL
minimal inhibitory concentration (MIC) [17]: 0.1 to 0.5 µg/mL
inhibition zone diameter (number of plus signs) [18]: ++ ((++) 7-9 mm)
inhibition zone diameter (number of plus signs) [19]: ++ ((++) 7-9 mm)
inhibition zone diameter (number of plus signs) [20]: +++ ((+++) 10-14 mm)

NRPTYVPPPRPPHPRL [Ck P]
inhibition zone diameter (number of plus signs) [1]: +++ ((+++) 10-14 mm)
inhibition zone diameter (number of plus signs) [2]: ++ ((++) 7-9 mm)
minimal inhibitory concentration (MIC) [3]: 20 to 40 µg/mL
inhibition zone diameter (number of plus signs) [21]: ++ ((++) 7-9 mm)
minimal inhibitory concentration (MIC) [4]: > 20 µg/mL
inhibition zone diameter (number of plus signs) [5]: ++++ ((++++) 15-19 mm)
inhibition zone diameter (number of plus signs) [6]: +++++ ((+++++) 20 or more min)
minimal inhibitory concentration (MIC) [7]: 1 to 5 µg/mL
minimal inhibitory concentration (MIC) [9]: 1 to 5 µg/mL
inhibition zone diameter (number of plus signs) [10]: ++++ ((++++) 15-19 mm)
minimal inhibitory concentration (MIC) ([11]; inoculum 12 × 10^6 CFU/ml): > 40 µg/mL
minimal inhibitory concentration (MIC) ([11]; inoculum 1000 CFU/ml): > 40 µg/mL
inhibition zone diameter (number of plus signs) [12]: +++ ((+++) 10-14 mm)
inhibition zone diameter (number of plus signs) [13]: ++ ((++) 7-9 mm)
inhibition zone diameter (number of plus signs) [14]: ++ ((++) 7-9 mm)
minimal inhibitory concentration (MIC) ([15]; inoculum 16 × 10^6 CFU/ml): 1 to 5 µg/mL
minimal inhibitory concentration (MIC) ([15]; inoculum 1200 CFU/ml): 0.1 to 0.5 µg/mL
minimal inhibitory concentration (MIC) [16]: > 40 µg/mL
minimal inhibitory concentration (MIC) [17]: 0.5 to 1 µg/mL
inhibition zone diameter (number of plus signs) [18]: ++++ ((++++) 15-19 mm)
inhibition zone diameter (number of plus signs) [19]: +++ ((+++) 10-14 mm)
inhibition zone diameter (number of plus signs) [20]: +++ ((+++) 10-14 mm)
